Laboratory results reported in article PMC7016291 (Acta Pharmaceutica Sinica. B, 2019).
“And” between values parts separate entries of the source, which are not always exact repeats. Equal values may be shown once. Read-outs that look alike come from different tables or passages of the source.

Key:
[1] = test system: MT-4 cells; assay: Cytotoxicity in uninfected MT-4 cells; type: cell-based; conditions: uninfected MT-4 cell viability reduced by 50%
[2] = target: HIV-1 RT RNase H (Human immunodeficiency virus type 1 group M subtype B, UniProt P03366); assay: HIV-1 RT RNase H inhibition; type: biochemical; conditions: for RNase H IC50: mean of four separate experiments
[3] = target: WT HIV-1 RT (Human immunodeficiency virus type 1 group M subtype B, UniProt P03366); assay: HIV-1 RT inhibition assay; type: biochemical; conditions: for RT IC50: WT HIV-1 RT, mean of at least two separate experiments
[4] = test system: HIV-2 (ROD); assay: Anti-HIV activity in MT-4 cells; type: cell-based
[5] = In vivo pharmacokinetics in SD rats; conditions: rat, plasma
[6] = Cytotoxicity in uninfected MT-4 cells; type: cell-based; conditions: human, uninfected MT-4 cells
[7] = test system: HIV-1 L100I; assay: Anti-HIV-1 activity against mutant strain L100I in MT-4 cells; type: cell-based
[8] = target: CYP3A4M (Homo sapiens, UniProt P08684)
[9] = Plasma protein binding, dialysis equilibrium method, rat
[10] = test system: HIV-1 RES056 (K103N/Y181C); assay: Anti-HIV-1 activity against double mutant RES056 in MT-4 cells; type: cell-based
[11] = target: CYP2D6 (Homo sapiens, UniProt P10635); assay: biochemical
[12] = Kinetic aqueous solubility; conditions: kinetic from dmso stock
[13] = test system: HIV-1 F227L + V106A; assay: Anti-HIV-1 activity against double mutant F227L + V106A in MT-4 cells; type: cell-based
[14] = test system: HIV-1 E138K; assay: Anti-HIV-1 activity against mutant strain E138K in MT-4 cells; type: cell-based
[15] = target: CYP2C19 (Homo sapiens, UniProt P33261); assay: Cytochrome P450 inhibition, CYP2C19; type: in vitro ADME
[16] = target: CYP2C9 (Homo sapiens, UniProt P11712); assay: Cytochrome P450 inhibition, CYP2C9; type: in vitro ADME
[17] = Plasma protein binding, dialysis equilibrium method, human
[18] = target: T1, CYP1A2 (Homo sapiens, UniProt P05177); assay: biochemical
T1 sequence (P05177 1-516): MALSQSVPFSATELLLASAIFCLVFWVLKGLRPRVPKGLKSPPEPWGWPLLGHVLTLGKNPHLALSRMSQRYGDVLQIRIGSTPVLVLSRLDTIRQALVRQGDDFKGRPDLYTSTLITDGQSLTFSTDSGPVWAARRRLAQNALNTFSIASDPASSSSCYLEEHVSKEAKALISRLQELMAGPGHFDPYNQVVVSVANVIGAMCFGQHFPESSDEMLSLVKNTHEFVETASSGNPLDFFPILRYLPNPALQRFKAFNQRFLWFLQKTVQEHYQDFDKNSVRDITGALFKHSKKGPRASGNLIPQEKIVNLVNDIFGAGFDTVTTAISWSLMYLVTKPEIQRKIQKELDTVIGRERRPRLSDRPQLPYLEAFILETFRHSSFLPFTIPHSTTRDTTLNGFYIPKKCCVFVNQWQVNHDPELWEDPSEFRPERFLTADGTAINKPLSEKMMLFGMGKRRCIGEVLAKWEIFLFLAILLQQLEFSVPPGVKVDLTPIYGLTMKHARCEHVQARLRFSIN

[19] = test system: HIV-1 Y181C; assay: Anti-HIV-1 activity against mutant strain Y181C in MT-4 cells; type: cell-based
[20] = test system: HIV-1 Y188L; assay: Anti-HIV-1 activity against mutant strain Y188L in MT-4 cells; type: cell-based
[21] = test system: HIV-1 K103N; assay: Anti-HIV-1 activity against mutant strain K103N in MT-4 cells; type: cell-based
[22] = cited from earlier work
[23] = read-out: EC50 ROD, MT-4 cells, HIV-2 strain ROD
[24] = aqueous solution at pH 2.0, pH 2, aqueous buffer
[25] = aqueous solution at pH 7.0, pH 7, aqueous buffer
[26] = aqueous solution at pH 7.4, pH 7.4, aqueous buffer

CYP3A4M, sequence (P08684 whole entry): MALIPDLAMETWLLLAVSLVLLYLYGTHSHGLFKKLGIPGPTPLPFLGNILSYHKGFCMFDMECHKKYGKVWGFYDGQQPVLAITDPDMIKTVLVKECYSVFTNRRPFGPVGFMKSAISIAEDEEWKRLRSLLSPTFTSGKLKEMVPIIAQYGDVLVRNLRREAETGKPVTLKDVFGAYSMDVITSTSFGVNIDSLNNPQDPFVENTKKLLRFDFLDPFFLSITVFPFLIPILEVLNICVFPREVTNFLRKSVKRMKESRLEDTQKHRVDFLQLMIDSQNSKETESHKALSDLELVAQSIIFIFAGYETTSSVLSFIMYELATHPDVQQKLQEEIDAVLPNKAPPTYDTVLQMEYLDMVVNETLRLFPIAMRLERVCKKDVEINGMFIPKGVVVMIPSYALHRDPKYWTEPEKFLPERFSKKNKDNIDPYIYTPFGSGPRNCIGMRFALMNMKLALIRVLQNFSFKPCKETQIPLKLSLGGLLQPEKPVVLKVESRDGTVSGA
CYP2C9, sequence (P11712 whole entry): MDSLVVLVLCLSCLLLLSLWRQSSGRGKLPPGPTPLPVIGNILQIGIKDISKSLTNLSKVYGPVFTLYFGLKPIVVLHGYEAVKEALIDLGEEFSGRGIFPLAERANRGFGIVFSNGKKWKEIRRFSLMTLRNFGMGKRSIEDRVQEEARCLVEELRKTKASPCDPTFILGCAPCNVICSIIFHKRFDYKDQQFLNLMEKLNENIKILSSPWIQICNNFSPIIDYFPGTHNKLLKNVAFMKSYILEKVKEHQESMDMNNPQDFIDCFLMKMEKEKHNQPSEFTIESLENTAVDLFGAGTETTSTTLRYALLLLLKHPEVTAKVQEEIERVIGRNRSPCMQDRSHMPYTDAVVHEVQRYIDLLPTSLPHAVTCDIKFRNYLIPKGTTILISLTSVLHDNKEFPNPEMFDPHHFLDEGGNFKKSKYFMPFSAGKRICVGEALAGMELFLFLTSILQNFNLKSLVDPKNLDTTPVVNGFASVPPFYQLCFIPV
CYP2D6, sequence (P10635 whole entry): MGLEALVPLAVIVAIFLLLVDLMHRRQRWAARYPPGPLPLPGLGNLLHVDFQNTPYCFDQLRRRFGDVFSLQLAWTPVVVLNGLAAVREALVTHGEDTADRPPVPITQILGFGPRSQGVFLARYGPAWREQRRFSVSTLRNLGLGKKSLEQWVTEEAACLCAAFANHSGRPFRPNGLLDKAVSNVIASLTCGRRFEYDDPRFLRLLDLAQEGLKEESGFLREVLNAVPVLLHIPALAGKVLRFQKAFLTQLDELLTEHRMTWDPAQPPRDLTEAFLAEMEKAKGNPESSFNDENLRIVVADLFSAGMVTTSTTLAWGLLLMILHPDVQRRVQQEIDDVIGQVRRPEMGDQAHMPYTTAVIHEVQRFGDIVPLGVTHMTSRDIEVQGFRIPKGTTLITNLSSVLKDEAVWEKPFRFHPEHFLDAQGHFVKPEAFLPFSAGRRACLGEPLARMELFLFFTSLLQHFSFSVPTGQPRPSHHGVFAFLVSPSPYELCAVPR
CYP2C19, sequence (P33261 whole entry): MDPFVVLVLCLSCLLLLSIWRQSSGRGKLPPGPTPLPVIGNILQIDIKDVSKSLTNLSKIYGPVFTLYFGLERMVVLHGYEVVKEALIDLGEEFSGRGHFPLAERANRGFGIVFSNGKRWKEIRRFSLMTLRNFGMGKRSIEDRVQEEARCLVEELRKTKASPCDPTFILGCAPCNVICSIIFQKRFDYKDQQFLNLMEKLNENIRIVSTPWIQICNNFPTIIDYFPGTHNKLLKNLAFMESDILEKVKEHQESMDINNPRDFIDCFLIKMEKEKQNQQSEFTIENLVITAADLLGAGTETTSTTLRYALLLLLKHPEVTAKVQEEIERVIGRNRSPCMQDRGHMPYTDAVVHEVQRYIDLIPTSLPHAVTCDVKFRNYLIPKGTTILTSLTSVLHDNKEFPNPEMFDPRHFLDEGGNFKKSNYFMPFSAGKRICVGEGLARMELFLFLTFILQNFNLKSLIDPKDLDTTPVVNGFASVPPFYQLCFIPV

## COC(=O)CNc1nc(Nc2ccc(C#N)cc2)nc(Oc2c(C)cc(-c3ccc(C#N)cc3)cc2C)n1 [Compound 5a, Methyl (4-((4ʹ-cyano-3,5-dimethyl-[1,1ʹ-biphenyl]-4-yl)oxy)-6-((4-cyanophenyl)-amino)-1,3,5-triazin-2-yl) glycinate]
[1]
  CC50: > 125 µM
[2]
  RNase H IC50: >600 µg/mL
[3]
  RT IC50: 0.047 ± 0.003 µg/mL
[4]; [23]
  EC50: 0.56 ± 0.14 µM

## Cc1cc(-c2ccc(C#N)cc2)cc(C)c1Oc1nc(NCCN2CCOCC2)nc(Nc2ccc(C#N)cc2)n1 [Compound 5j, 4ʹ-((4-((4-Cyanophenyl)amino)-6-((2-morpholinoethyl)amino)-1,3,5-triazin-2-yl)-oxy)-3ʹ,5ʹ-dimethyl-[1,1ʹ-biphenyl]-4-carbonitrile]
[5]; iv, 1 mg/kg
  AUC(0-inf): 6660 ± 809 ng·h/mL
  AUC(0-t): 6650 ± 795 ng·h/mL
  clearance: 5.06 ± 0.658 mL/min/kg
  half-life: 0.734 ± 0.174 h
[5]; po, 20 mg/kg
  AUC(0-t): 322 ± 176 ng·h/mL
  Cmax: 43.2 ± 39.8 ng/mL
  Tmax: 13.3 ± 9.24 h
  bioavailability: 0.485%
[6]
  CC50 at 4 days: 1.08 ± 0.09 µM
[7]; Human immunodeficiency virus 1, MT4, read-out: EC50 L100I
  EC50: 0.012 ± 0.002 µM
[2]
  IC50: > 1100 µM
[8]
  IC50: > 50 µM
[9]
  recovery at 2 μmol/L: 99.5%
[3]
  IC50: 0.176 µM
[10]; Human immunodeficiency virus 1, MT4, read-out: EC50 RES056
  EC50: 0.034 ± 0.004 µM
[11]
  IC50: > 50 µM
[12]; FaSSIF
  solubility kinetic: 41.6 µg/mL and 76.2 µM
[12]; [24]
  solubility kinetic: 6.58 µg/mL and 12.1 µM
[12]; [25]
  solubility kinetic: < 0.853 µg/mL and < 1.56 µM
[12]; [26]
  solubility kinetic: < 0.853 µg/mL and < 1.56 µM
[13]; Human immunodeficiency virus 1, MT4, read-out: EC50 F227L + V106A
  EC50: 0.017 ± 0.004 µM
[14]; Human immunodeficiency virus 1, MT4, read-out: EC50 E138K
  EC50: 0.0064 ± 0.0001 µM
[15]
  IC50: > 50 µM
[16]
  IC50: 32.9 µM
[17]
  recovery at 2 μmol/L: 84.9%
[18]
  IC50: > 50 µM
[4]; Human immunodeficiency virus 2, MT4, read-out: EC50 ROD
  EC50: 0.05 ± 0.001 µM
[19]; Human immunodeficiency virus 1, MT4, read-out: EC50 Y181C
  EC50: 0.013 ± 0.002 µM
[20]; Human immunodeficiency virus 1, MT4, read-out: EC50 Y188L
  EC50: 0.017 ± 0.003 µM
[21]; Human immunodeficiency virus 1, MT4, read-out: EC50 K103N
  EC50: 0.003 ± 0.001 µM

## COC(=O)CNc1nc(Nc2ccc(C#N)cc2)nc(Nc2c(C)cc(-c3ccc(C#N)cc3)cc2C)n1 [Compound 6b, Methyl (4-((4ʹ-cyano-3,5-dimethyl-[1,1ʹ-biphenyl]-4-yl)amino)-6-((4-cyanophenyl)amino)-1,3,5-triazin-2-yl) glycinate]
[1]
  CC50: > 125 µM
[2]
  RNase H IC50: >600 µg/mL
[3]
  RT IC50: 0.033 ± 0.004 µg/mL
[4]; [23]
  EC50: 21.5 µM

## O=C1Nc2ccc(Cl)cc2[C@@](C#CC2CC2)(C(F)(F)F)O1 [EFV, reference compound]
[1]
  CC50: >2.0 µM
[7]; read-out: EC50 L100I, MT-4 cells, single mutant
  EC50: 0.014 µM
[10]; read-out: EC50 RES056, MT-4 cells, double mutant K103N/Y181C
  EC50: 0.071 ± 0.036 µM
[13]; read-out: EC50 F227L + V106A, MT-4 cells, double mutant
  EC50: 0.084 ± 0.02 µM
[14]; read-out: EC50 E138K, MT-4 cells, single mutant
  EC50: 0.0015 ± 0.0001 µM
[19]; read-out: EC50 Y181C, MT-4 cells, single mutant
  EC50: 0.0013 ± 0.0001 µM
[20]; read-out: EC50 Y188L, MT-4 cells, single mutant
  EC50: 0.082 ± 0.007 µM
[21]; read-out: EC50 K103N, MT-4 cells, single mutant
  EC50: 0.03 ± 0.011 µM

## Cc1cc(C#N)cc(C)c1Oc1nc(Nc2ccc(C#N)cc2)nc(N)c1Br [ETR, etravirine, reference compound]
[1]; listed as ETV
  CC50: >2.0 µM
[6]
  CC50 at 4 days: > 2 µg/mL
[12]; FaSSIF
  solubility kinetic: 13.2 µg/mL and 30.3 µM
[12]; [24]
  solubility kinetic: 127 µg/mL and 291 µM
[12]; [25]
  solubility kinetic: < 1 µg/mL and < 2.3 µM
[12]; [26]
  solubility kinetic: < 1 µg/mL and < 2.3 µM
[22]
  aqueous solubility: lower than 1 μg/mL

## CC(=O)CC(c1ccccc1)c1c(O)c2ccccc2oc1=O (stereo not shown) [Warfarin, reference compound]
[9]
  recovery at 2 μmol/L: 99%
[17]
  recovery at 2 μmol/L: 86%
